Measured values: ChEMBL document CHEMBL2380230, “Potency switch between CHK1 and MK2: discovery of imidazo[1,2-a]pyrazine- and imidazo[1,2-c]pyrimidine-based kinase inhibitors” (Bioorg Med Chem Lett, 2013)

Legend:
[1] = target: T1, MAP kinase-activated protein kinase 2 (Homo sapiens, UniProt P49137); test: Inhibition of human recombinant MK2
Target sequence in this assay (P49137 whole entry): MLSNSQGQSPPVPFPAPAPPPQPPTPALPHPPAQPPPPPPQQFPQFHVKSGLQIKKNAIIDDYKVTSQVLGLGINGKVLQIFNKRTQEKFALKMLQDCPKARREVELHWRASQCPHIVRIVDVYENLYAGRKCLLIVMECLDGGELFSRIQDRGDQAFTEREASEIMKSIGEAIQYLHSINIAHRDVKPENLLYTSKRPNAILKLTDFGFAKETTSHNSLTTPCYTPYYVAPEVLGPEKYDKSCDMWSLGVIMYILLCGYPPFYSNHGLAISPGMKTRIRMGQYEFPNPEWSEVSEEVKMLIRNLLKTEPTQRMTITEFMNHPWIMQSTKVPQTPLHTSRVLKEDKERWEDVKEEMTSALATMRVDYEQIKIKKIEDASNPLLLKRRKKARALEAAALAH

[2] = target: T2, Serine/threonine-protein kinase Chk1 (Homo sapiens, UniProt O14757); test: Inhibition of CHK1 (unknown origin)
T2 sequence (O14757 whole entry): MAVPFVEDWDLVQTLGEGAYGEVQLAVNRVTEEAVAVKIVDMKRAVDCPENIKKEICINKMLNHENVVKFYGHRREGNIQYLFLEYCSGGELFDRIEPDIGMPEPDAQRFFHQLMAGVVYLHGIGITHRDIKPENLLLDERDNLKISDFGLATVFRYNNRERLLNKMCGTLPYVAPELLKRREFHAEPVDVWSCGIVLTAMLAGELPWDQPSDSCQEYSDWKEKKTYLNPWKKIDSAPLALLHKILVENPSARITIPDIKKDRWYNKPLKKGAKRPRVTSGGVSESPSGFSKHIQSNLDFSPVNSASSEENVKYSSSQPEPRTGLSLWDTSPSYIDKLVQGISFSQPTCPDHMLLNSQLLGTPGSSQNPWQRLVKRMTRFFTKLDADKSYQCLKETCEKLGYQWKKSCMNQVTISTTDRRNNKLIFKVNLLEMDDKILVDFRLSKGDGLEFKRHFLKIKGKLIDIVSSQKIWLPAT

[3] = target: T1, MAP kinase-activated protein kinase 2; test: Inhibition of human recombinant MK2 at 10 uM
Target sequence in this assay (P49137 whole entry, looked up): as the sequence (P49137 whole entry) above

[4] = target: Casein kinase I isoform delta (Homo sapiens, UniProt P48730); test: Inhibition of human CSNK1D
Sequence of Casein kinase I isoform delta (P48730 whole entry, canonical isoform): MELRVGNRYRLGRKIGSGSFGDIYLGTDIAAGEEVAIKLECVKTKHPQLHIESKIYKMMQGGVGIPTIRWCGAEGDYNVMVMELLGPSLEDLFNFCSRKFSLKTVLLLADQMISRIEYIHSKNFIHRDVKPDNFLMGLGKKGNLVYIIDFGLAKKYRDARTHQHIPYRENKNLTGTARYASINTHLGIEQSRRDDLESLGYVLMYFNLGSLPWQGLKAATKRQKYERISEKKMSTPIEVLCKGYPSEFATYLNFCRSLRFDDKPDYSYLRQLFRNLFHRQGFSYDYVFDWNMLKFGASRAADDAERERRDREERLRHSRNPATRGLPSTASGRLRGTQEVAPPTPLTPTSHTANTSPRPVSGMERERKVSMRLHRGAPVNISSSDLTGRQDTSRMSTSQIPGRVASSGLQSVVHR

[5] = target: Mitogen-activated protein kinase 1 (Homo sapiens, UniProt P28482); test: Inhibition of human ERK2
Sequence of Mitogen-activated protein kinase 1 (P28482 whole entry): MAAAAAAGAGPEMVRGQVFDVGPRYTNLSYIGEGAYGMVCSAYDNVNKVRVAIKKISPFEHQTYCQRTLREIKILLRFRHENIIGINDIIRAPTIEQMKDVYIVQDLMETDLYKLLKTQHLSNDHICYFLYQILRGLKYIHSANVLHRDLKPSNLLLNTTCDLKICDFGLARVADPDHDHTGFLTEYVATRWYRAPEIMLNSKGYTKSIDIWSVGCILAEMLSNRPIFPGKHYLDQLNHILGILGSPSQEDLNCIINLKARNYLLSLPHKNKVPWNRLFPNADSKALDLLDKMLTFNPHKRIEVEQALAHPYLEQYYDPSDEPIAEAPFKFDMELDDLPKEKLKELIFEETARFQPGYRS

[6] = target: Insulin-like growth factor 1 receptor (Homo sapiens, UniProt P08069); test: Inhibition of human IGF1R
Sequence of Insulin-like growth factor 1 receptor (P08069 31-736 limits assumed): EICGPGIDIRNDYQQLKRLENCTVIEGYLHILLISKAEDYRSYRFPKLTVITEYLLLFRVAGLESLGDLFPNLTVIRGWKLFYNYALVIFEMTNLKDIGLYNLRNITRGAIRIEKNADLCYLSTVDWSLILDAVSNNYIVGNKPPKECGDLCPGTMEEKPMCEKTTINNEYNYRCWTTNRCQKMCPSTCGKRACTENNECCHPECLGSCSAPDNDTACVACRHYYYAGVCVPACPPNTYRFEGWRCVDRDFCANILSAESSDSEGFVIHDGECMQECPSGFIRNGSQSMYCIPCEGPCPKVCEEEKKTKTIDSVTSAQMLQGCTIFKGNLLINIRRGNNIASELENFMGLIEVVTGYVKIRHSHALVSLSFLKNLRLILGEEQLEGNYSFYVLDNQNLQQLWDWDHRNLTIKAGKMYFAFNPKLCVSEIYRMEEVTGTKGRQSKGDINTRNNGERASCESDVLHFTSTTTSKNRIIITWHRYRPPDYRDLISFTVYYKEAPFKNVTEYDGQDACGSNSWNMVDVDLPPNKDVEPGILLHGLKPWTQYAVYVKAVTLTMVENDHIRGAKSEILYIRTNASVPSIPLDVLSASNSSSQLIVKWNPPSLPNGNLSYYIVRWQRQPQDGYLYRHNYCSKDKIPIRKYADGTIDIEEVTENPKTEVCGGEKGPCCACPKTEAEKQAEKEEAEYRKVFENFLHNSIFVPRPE
Sequence of Insulin-like growth factor 1 receptor (P08069 741-1367 limits assumed): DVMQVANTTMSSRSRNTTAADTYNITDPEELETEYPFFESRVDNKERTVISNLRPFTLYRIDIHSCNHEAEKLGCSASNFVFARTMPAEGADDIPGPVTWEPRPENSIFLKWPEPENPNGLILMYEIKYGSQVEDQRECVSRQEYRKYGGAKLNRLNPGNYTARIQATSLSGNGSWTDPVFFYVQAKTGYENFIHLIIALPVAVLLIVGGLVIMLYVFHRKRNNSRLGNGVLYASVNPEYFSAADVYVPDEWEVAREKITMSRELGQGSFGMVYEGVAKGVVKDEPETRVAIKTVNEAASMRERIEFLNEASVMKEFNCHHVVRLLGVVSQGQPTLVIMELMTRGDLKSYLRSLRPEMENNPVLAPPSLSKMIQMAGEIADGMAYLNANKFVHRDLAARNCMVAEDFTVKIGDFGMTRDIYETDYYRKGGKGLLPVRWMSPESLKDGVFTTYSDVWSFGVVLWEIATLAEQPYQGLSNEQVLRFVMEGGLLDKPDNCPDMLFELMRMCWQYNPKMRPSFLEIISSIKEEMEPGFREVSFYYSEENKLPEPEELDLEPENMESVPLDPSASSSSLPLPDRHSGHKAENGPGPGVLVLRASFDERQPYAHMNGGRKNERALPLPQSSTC

[7] = target: Hepatocyte growth factor receptor (Homo sapiens, UniProt P08581); test: Inhibition of human MET
Sequence of Hepatocyte growth factor receptor (P08581 whole entry): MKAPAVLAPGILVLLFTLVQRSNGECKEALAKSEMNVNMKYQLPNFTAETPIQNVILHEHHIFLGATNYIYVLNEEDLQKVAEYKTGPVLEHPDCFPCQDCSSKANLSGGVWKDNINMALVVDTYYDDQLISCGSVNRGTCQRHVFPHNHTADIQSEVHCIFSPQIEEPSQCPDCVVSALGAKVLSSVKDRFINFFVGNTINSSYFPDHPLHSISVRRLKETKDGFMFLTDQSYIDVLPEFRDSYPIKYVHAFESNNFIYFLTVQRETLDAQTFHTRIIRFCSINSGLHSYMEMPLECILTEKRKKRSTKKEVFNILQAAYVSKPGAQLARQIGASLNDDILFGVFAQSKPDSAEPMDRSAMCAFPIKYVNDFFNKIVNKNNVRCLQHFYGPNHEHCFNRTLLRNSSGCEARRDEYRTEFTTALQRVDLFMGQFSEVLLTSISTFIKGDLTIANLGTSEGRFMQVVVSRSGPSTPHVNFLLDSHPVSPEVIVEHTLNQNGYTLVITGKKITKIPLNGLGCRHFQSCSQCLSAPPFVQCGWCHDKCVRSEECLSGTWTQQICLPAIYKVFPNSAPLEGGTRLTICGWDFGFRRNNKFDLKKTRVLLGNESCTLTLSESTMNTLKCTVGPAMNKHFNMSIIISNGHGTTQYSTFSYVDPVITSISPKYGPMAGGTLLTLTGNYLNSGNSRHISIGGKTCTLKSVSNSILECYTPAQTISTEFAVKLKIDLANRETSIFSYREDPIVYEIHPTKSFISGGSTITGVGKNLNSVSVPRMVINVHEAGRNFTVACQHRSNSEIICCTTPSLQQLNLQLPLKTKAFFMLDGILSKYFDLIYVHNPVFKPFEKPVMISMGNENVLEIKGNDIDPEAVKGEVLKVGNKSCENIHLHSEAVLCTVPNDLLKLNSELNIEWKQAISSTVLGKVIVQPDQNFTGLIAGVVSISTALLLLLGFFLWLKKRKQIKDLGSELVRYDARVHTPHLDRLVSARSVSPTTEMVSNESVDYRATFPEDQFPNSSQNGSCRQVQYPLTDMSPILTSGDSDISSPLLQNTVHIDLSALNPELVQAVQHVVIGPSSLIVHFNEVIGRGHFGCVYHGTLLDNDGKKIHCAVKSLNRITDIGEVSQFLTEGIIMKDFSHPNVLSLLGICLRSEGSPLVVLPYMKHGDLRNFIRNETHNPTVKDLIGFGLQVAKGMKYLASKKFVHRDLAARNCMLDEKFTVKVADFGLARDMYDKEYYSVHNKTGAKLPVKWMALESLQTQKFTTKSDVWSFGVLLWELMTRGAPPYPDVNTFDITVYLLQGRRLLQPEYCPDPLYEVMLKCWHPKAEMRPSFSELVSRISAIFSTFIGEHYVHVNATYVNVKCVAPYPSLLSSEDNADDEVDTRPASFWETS

[8] = target: Tyrosine-protein kinase Lck (Homo sapiens, UniProt P06239); test: Inhibition of human LCK
Sequence of Tyrosine-protein kinase Lck (P06239 whole entry): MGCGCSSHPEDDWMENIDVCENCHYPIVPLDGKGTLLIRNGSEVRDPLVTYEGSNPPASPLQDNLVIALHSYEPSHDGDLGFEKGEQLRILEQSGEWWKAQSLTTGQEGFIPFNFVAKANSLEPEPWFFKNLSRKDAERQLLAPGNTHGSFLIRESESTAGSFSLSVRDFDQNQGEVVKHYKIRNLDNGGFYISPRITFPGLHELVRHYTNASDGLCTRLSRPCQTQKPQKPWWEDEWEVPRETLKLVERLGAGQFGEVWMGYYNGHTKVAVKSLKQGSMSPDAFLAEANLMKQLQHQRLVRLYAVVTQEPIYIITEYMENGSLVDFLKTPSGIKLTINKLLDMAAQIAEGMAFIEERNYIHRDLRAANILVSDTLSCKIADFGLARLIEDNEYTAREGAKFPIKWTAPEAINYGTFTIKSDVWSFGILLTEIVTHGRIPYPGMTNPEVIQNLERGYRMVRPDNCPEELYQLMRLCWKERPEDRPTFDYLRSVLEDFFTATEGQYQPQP

[9] = target: T3, Inhibitor of nuclear factor kappa-B kinase subunit beta (Homo sapiens, UniProt O14920); test: Inhibition of human IKKB
T3 sequence (O14920 whole entry): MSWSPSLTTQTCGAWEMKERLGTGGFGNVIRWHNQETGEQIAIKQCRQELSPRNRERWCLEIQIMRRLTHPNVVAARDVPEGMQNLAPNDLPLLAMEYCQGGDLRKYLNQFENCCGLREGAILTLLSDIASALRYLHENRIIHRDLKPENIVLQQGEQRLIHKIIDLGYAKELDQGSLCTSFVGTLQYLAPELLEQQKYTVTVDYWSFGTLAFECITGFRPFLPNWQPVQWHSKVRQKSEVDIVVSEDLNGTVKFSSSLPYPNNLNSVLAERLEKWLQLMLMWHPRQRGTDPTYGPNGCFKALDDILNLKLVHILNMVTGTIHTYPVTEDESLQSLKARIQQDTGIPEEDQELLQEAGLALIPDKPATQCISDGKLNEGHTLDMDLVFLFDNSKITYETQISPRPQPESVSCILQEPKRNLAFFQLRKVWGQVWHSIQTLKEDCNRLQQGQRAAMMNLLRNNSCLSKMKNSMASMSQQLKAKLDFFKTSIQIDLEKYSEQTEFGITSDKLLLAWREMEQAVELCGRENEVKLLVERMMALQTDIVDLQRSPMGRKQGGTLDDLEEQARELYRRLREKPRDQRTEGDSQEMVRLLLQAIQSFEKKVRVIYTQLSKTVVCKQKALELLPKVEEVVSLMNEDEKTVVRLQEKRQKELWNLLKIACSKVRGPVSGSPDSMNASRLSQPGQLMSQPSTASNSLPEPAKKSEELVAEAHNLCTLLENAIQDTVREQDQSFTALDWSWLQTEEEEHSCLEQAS

[10] = target: RAC-alpha serine/threonine-protein kinase (Homo sapiens, UniProt P31749); test: Inhibition of human AKT1
Sequence of RAC-alpha serine/threonine-protein kinase (P31749 whole entry): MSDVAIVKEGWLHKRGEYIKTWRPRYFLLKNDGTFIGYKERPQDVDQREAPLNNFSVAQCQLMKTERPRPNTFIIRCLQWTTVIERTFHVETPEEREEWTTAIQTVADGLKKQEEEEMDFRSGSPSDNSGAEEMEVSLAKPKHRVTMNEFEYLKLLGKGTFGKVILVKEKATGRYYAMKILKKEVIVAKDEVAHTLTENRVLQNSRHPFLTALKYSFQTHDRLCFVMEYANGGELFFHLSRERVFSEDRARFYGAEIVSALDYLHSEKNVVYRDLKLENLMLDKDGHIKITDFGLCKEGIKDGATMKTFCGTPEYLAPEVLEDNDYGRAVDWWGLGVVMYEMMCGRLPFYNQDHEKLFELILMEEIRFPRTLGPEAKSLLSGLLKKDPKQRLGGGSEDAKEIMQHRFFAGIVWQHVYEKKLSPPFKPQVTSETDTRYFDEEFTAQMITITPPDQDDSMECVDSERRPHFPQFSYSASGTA

[11] = target: T4, Testis-specific serine/threonine-protein kinase 2 (Homo sapiens, UniProt Q96PF2); test: Inhibition of human TSSK2
T4 sequence (Q96PF2 whole entry): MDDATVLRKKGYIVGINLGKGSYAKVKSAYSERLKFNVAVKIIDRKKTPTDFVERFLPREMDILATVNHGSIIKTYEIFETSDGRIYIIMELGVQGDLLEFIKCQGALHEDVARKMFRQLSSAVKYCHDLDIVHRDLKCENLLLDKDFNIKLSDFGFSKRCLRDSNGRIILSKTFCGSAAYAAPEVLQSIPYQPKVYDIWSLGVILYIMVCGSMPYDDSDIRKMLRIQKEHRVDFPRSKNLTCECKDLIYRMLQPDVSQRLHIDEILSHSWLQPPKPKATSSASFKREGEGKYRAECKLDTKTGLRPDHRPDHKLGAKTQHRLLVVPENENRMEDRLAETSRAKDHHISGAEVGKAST

[12] = target: Tyrosine-protein kinase JAK2 (Homo sapiens, UniProt O60674); test: Inhibition of human JAK2

Row | IC50 [1] [µM] | IC50 [2] [µM] | SMILES | further results
1 | 10 |  | NC(=O)c1cnc(Nc2cccnc2)c2nc(-c3ccc(Cl)cc3)cn12 | 
2 | 0.82 | 5.07 | NC(=O)c1cnc(N[C@H]2CC[C@H](N)CC2)c2nc(-c3ccc(Cl)c(Cl)c3)cn12 | 
3 |  | 50 | NC(=O)c1cnc(NCC2CCCNC2)n2cc(-c3ccc(Cl)cc3)nc12 (stereo not given) | inhibition [3]: 61%
4 | 4.15 | 0.69 | NC(=O)c1cnc(NC2CCNCC2)c2nc(-c3ccc(Cl)cc3)cn12 | 
5 | 0.84 | 0.018 | NC(=O)c1ncc(N[C@H]2CCCNC2)c2nc(-c3ccc(Cl)cc3)cn12 | 
6 | 1.98 |  | NC(=O)c1ncc(N[C@H]2CC[C@H](N)CC2)c2nc(-c3ccc(Cl)cc3)cn12 | 
7 |  | 42.1 | NC(=O)c1cnc(N[C@@H]2CCNC2)n2cc(-c3ccc(Cl)cc3)nc12 | inhibition [3]: 56%
8 | 0.91 | 0.027 | NC(=O)c1cnc(N[C@H]2CCCNC2)c2nc(-c3ccc(F)cc3)cn12 | 
9 | 1.9 |  | NC(=O)c1cnc(N[C@H]2CC[C@@H](N)CC2)c2nc(-c3ccc(Cl)cc3)cn12 | 
10 | 4.09 | 0.29 | NCCCNc1ncc(C(N)=O)n2cc(-c3ccc(Cl)cc3)nc12 | 
11 |  |  | NC(=O)c1cnc(N[C@H]2CCCNC2)n2cc(-c3ccc(Cl)cc3)nc12 | inhibition [3]: 67%
12 | 0.4 | 0.89 | CN[C@H]1CC[C@H](Nc2ncc(C(N)=O)n3cc(-c4ccc(Cl)cc4)nc23)CC1 | 
13 | 4 | 50 | NC(=O)c1cnc(N[C@H]2CC[C@H](N)CC2)n2cc(-c3ccc(Cl)cc3)nc12 | 
14 |  |  | NC(=O)c1cnc(N[C@H]2CC[C@H](N)CC2)c2nc(-c3ccc(Cl)cc3)cn12 | IC50 [4]: 12 µM; IC50 [5]: > 30 µM; IC50 [6]: 12 µM; IC50 [7]: > 30 µM; IC50 [8]: 1 µM; IC50 [9]: > 30 µM; IC50 [10]: > 30 µM; IC50 [11]: 12 µM; IC50 [12]: 13 µM
15 |  | 50 | CN1CCC(Nc2ncc(C(N)=O)c3nc(-c4ccc(Cl)cc4)cn23)CC1 | inhibition [3]: 69%
16 | 0.91 | 0.023 | NC(=O)c1cnc(N[C@H]2CCCNC2)c2nc(-c3ccc4ccccc4c3)cn12 | 
